According to patent US20170210723A1, “MOLECULES HAVING PESTICIDAL UTILITY, AND INTERMEDIATES, COMPOSITIONS, AND PROCESSES, RELATED THERETO” (priority 2016, published 2017):

Key:
Type in all cases: in vivo
[1] = test system: Beet Armyworm (Spodoptera exigua); assay: Bioassays on BAW, 128-well diet tray assay; details: Spodoptera exigua, 168 h; 50 μg/cm^2 on artificial diet, second instar larvae, five to seven days; read-out: BAW % Control (or Mortality) rating
[2] = test system: Cabbage Looper (Trichoplusia ni); assay: Bioassays on CL, 128-well diet tray assay; details: Trichoplusia ni, 168 h; 50 μg/cm^2 on artificial diet, second instar larvae, five to seven days; read-out: CL % Control (or Mortality) rating
Outline: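 Second-instar larvae (1–5 per well) were fed diet surface-treated with 50 μg/cm^2 compound, eight wells each. After five to seven days at 25° C. under a 14:10 photoperiod, mortality was scored per well and the eight wells averaged.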

[3] = test system: Yellow Fever Mosquito (Aedes aegypti); assay: Bioassays on Yellow Fever Mosquito larvae, 96-well plate; details: from 4000 ppm DMSO master plate, about 1 day-old larvae, 3 days
Experimental: Master plates containing 400 μg of a molecule dissolved in 100 μL of dimethyl sulfoxide (DMSO) (equivalent to a 4000 ppm solution) are used. A master plate of assembled molecules contains 15 μL per well. To this plate, 135 μL of a 90:10 water:acetone mixture is added to each well. A robot (Biomek® NXP Laboratory Automation Workstation) is programmed to dispense 15 μL aspirations from the master plate into an empty 96-well shallow plate (“daughter” plate). There are 6 reps (“daughter” plates) created per master. The created daughter plates are then immediately infested with YFM larvae.
The day before plates are to be treated, mosquito eggs are placed in Millipore water containing liver powder to begin hatching (4 g. into 400 mL). After the daughter plates are created using the robot, they are infested with 220 μL of the liver powder/larval mosquito mixture (about 1 day-old larvae). After plates are infested with mosquito larvae, a non-evaporative lid is used to cover the plate to reduce drying. Plates are held at room temperature for 3 days prior to grading. After 3 days, each well is observed and scored based on mortality. The results are indicated in the table entitled “Table ABC: Biological Results” (See Table Section). AGRICULTURALLY ACCEPTABLE ACID ADDITION SALTS, SALT DERIVATIVES, SOLVATES, ESTER DERIVATIVES, POLYMORPHS, ISOTOPES, AND RADIONUCLIDES

Compound	mortality at 50 µg/cm2 [1] [%]	mortality at 50 µg/cm2 [2] [%]	YFM % Control (or Mortality) rating [3]
C[C@H](C[S+]([O-])CC(F)(F)F)NC(=O)c1ccc(/C=C/C(c2cc(Br)cc(Br)c2)C(F)(F)F)cc1C(F)(F)F (stereo partly drawn) [F60, 4-((E)-3-(3,5-Dibromophenyl)-4,4,4-trifluorobut-1-en-1-yl)-N-((2R)-1-((2,2,2-trifluoroethyl)sulfinyl)propan-2-yl)-2-(trifluoromethyl)benzamide]	50 to 100	50 to 100	A (80-100)
C[C@H](CS(=O)(=O)CC(F)(F)F)NC(=O)c1ccc(/C=C/C(c2cc(Br)cc(Br)c2)C(F)(F)F)cc1C(F)(F)F (stereo partly drawn) [F61, 4-((E)-3-(3,5-Dibromophenyl)-4,4,4-trifluorobut-1-en-1-yl)-N—((R)-1-((2,2,2-trifluoroethyl)sulfonyl)propan-2-yl)-2-(trifluoromethyl)benzamide]	50 to 100	50 to 100	A (80-100)
CCSC[C@@H](C)NC(=O)c1ccc(/C=C/C(c2cc(Cl)c(Cl)c(Cl)c2)C(F)(F)F)cc1C(F)(F)F (stereo partly drawn) [F62, N—((R)-1-(Ethylthio)propan-2-yl)-4-((E)-4,4,4-trifluoro-3-(3,4,5-trichlorophenyl)but-1-en-1-yl)-2-(trifluoromethyl)benzamide]	50 to 100	50 to 100	A (80-100)
O=C(NC1(C[S+]([O-])CC(F)(F)F)CC1)c1ccc(/C=C/C(c2cc(Cl)c(Cl)c(Cl)c2)C(F)(F)F)cc1C(F)(F)F (stereo not drawn) [F63, (E)-4-(4,4,4-Trifluoro-3-(3,4,5-trichlorophenyl)but-1-en-1-yl)-N-(1-(((2,2,2-trifluoroethyl)sulfinyl)methyl)cyclopropyl)-2-(trifluoromethyl)benzamide]	50 to 100	50 to 100	A (80-100)
C[C@H](CSCC(F)(F)F)NC(=O)c1ccc(/C=C/C(c2cc(Br)cc(Br)c2)C(F)(F)F)cc1Cl (stereo partly drawn) [F64, 2-Chloro-4-((E)-3-(3,5-dibromophenyl)-4,4,4-trifluorobut-1-en-1-yl)-N—((R)-1-((2,2,2-trifluoroethyl)thio)propan-2-yl)benzamide]	50 to 100	50 to 100	A (80-100)
C[C@H](CS(=O)(=O)CC(F)(F)F)NC(=O)c1ccc(/C=C/C(c2cc(Br)cc(Br)c2)C(F)(F)F)cc1Cl (stereo partly drawn) [F65, 2-Chloro-4-((E)-3-(3,5-dibromophenyl)-4,4,4-trifluorobut-1-en-1-yl)-N—((R)-1-((2,2,2-trifluoroethyl)sulfonyl)propan-2-yl)benzamide]	50 to 100	50 to 100	A (80-100)
Cc1cc(/C=C/C(c2cc(Br)cc(Br)c2)C(F)(F)F)ccc1C(=O)N[C@H](C)CS(=O)(=O)CC(F)(F)F (stereo partly drawn) [F66, 4-((E)-3-(3,5-Dibromophenyl)-4,4,4-trifluorobut-1-en-1-yl)-2-methyl-N—((R)-1-((2,2,2-trifluoroethyl)sulfonyl)propan-2-yl)benzamide]	50 to 100	50 to 100	A (80-100)
C[C@H](CSCC(F)(F)F)NC(=O)c1ccc(/C=C/C(c2cc(Cl)c(Cl)c(Cl)c2)C(F)(F)F)cc1Cl (stereo partly drawn) [F67, 2-Chloro-4-((E)-4,4,4-trifluoro-3-(3,4,5-trichlorophenyl)but-1-en-1-yl)-N—((R)-1-((2,2,2-trifluoroethyl)thio)propan-2-yl)benzamide]	50 to 100	50 to 100	A (80-100)
CC[S+]([O-])C[C@@H](C)NC(=O)c1ccc(/C=C/C(c2cc(Cl)c(Cl)c(Cl)c2)C(F)(F)F)cc1C(F)(F)F (stereo partly drawn) [F69, N-((2R)-1-(Ethylsulfinyl)propan-2-yl)-4-((E)-4,4,4-trifluoro-3-(3,4,5-trichlorophenyl)but-1-en-1-yl)-2-(trifluoromethyl)benzamide]	50 to 100	50 to 100	A (80-100)
CCCSC[C@@H](C)NC(=O)c1ccc(/C=C/C(c2cc(Cl)c(Cl)c(Cl)c2)C(F)(F)F)cc1C(F)(F)F (stereo partly drawn) [F70, N—((R)-1-(Propylthio)propan-2-yl)-4-((E)-4,4,4-trifluoro-3-(3,4,5-trichlorophenyl)but-1-en-1-yl)-2-(trifluoromethyl)benzamide]	50 to 100	50 to 100	A (80-100)
CCc1cc(/C=C/C(c2cc(Cl)c(Cl)c(Cl)c2)C(F)(F)F)ccc1C(=O)N[C@H](C)CS(=O)(=O)CC(F)(F)F (stereo partly drawn) [F71, 2-Ethyl-4-((E)-4,4,4-trifluoro-3-(3,4,5-trichlorophenyl)but-1-en-1-yl)-N—((R)-1-((2,2,2-trifluoroethyl)sulfonyl)propan-2-yl)benzamide]	50 to 100	50 to 100	A (80-100)
C[C@H](C[S+]([O-])CC(F)(F)F)NC(=O)c1ccc(/C=C/C(c2cc(Br)cc(Br)c2)C(F)(F)F)cc1Cl (stereo partly drawn) [F72, 2-Chloro-4-((E)-3-(3,5-dibromophenyl)-4,4,4-trifluorobut-1-en-1-yl)-N-((2R)-1-((2,2,2-trifluoroethyl)sulfinyl)propan-2-yl)benzamide]	50 to 100	50 to 100	A (80-100)
Cc1cc(/C=C/C(c2cc(Br)cc(Br)c2)C(F)(F)F)ccc1C(=O)N[C@H](C)C[S+]([O-])CC(F)(F)F (stereo partly drawn) [F73, 4-((E)-3-(3,5-Dibromophenyl)-4,4,4-trifluorobut-1-en-1-yl)-2-methyl-N-((2R)-1-((2,2,2-trifluoroethyl)sulfinyl)propan-2-yl)benzamide]	50 to 100	50 to 100	A (80-100)
CC(C)CSC[C@@H](C)NC(=O)c1ccc(/C=C/C(c2cc(Cl)c(Cl)c(Cl)c2)C(F)(F)F)cc1C(F)(F)F (stereo partly drawn) [F85, N—((R)-1-(Isobutylthio)propan-2-yl)-4-((E)-4,4,4-trifluoro-3-(3,4,5-trichlorophenyl)but-1-en-1-yl)-2-(trifluoromethyl)benzamide]	50 to 100	50 to 100	A (80-100)
CC(C)SC[C@@H](C)NC(=O)c1ccc(/C=C/C(c2cc(Cl)c(Cl)c(Cl)c2)C(F)(F)F)cc1C(F)(F)F (stereo partly drawn) [F86, N-((R)-1-(Isopropylthio)propan-2-yl)-4-((E)-4,4,4-trifluoro-3-(3,4,5-trichlorophenyl)but-1-en-1-yl)-2-(trifluoromethyl) benzamide]	50 to 100	50 to 100	A (80-100)
CC(C)C[S+]([O-])C[C@@H](C)NC(=O)c1ccc(/C=C/C(c2cc(Cl)c(Cl)c(Cl)c2)C(F)(F)F)cc1C(F)(F)F (stereo partly drawn) [F87, N-((2R)-1-(Isobutylsulfinyl)propan-2-yl)-4-((E)-4,4,4-trifluoro-3-(3,4,5-trichlorophenyl)but-1-en-1-yl)-2-(trifluoromethyl)benzamide]	50 to 100	50 to 100	A (80-100)
C[C@H](CSCC(F)(F)F)NC(=O)c1ccc(/C=C/C(c2cc(Cl)cc(Cl)c2)C(F)(F)F)cc1C(F)(F)F (stereo partly drawn) [F88, 4-((E)-3-(3,5-Dichlorophenyl)-4,4,4-trifluorobut-1-en-1-yl)-N—((R)-1-((2,2,2-trifluoroethyl)thio)propan-2-yl)-2-(trifluoromethyl)benzamide]	50 to 100	50 to 100	A (80-100)
Cc1cc(/C=C/C(c2cc(Cl)cc(Cl)c2)C(F)(F)F)ccc1C(=O)N[C@H](C)CSCC(F)(F)F (stereo partly drawn) [F89, 4-((E)-3-(3,5-Dichlorophenyl)-4,4,4-trifluorobut-1-en-1-yl)-2-methyl-N—((R)-1-((2,2,2-trifluoroethyl)thio)propan-2-yl)benzamide]	50 to 100	50 to 100	A (80-100)
C[C@H](C[S+]([O-])CC(F)(F)F)NC(=O)c1ccc(/C=C/C(c2cc(Cl)cc(Cl)c2)C(F)(F)F)cc1C(F)(F)F (stereo partly drawn) [F90, 4-((E)-3-(3,5-Dichlorophenyl)-4,4,4-trifluorobut-1-en-1-yl)-N-((2R)-1-((2,2,2-trifluoroethyl)sulfinyl)propan-2-yl)-2-(trifluoromethyl)benzamide]	50 to 100	50 to 100	A (80-100)
Cc1cc(/C=C/C(c2cc(Cl)cc(Cl)c2)C(F)(F)F)ccc1C(=O)N[C@H](C)C[S+]([O-])CC(F)(F)F (stereo partly drawn) [F91, 4-((E)-3-(3,5-Dichlorophenyl)-4,4,4-trifluorobut-1-en-1-yl)-2-methyl-N-((2R)-1-((2,2,2-trifluoroethyl)sulfinyl)propan-2-yl)benzamide]	50 to 100	50 to 100	A (80-100)
